The values below come from US9969716B2, “Indole derivatives as modulators of methyl modifying enzymes, compositions and uses thereof” (Constellation Pharmaceuticals, Inc., priority 2013, dated 2018).

Structures are written as SMILES. pEC50, pIC50: −log10 of the molar value. Where only a bound is given, the exact number is not on record here.

The target in one test is EZH2 (Homo sapiens, UniProt Q15910). The experiment in a line: EZH2 assay (rPRC2, 3H SAM methyl transfer to biotinylated oligonucleosomes, FlashPlate). In kind it is biochemical. As for the experimental part: EZH2 Assay: Assays were carried out by mixing rPRC2 together with biotinylated oligonucleosome substrates in the presence of the radio-labeled enzyme co-factor, S-adenosyl-L-methionine (^3H SAM) (Perkin Elmer) and monitoring the enzymatically mediated transfer of tritiated methyl groups from ^3H SAM to histone lysine residues. The amount of resulting tritiated methyl histone product was measured by first capturing the biotinylated oligonucleosomes in streptavidin (SAV) coated FlashPlates (Perkin Elmer), followed by a wash step to remove un-reacted ^3H SAM, and then counting on a TopCount NXT 384 well plate scintillation counter (Perkin Elmer). The final assay conditions for EZH2 were as follows: 50 mM Tris Buffer pH 8.5, 1 mM DTT, 69 μM Brij-35 detergent, 5.0 mM MgCl2, 0.1 mg/mL BSA, 0.2 μM ^3H SAM, 0.2 μM biotinylated oligonucleosomes, 3.6 μM H3K27me3 peptide and 2 nM EZH2.
A 12.5 μL volume of the HMT enzyme, H3K27me3 peptide and oligonucleosome substrate in assay buffer was added to each well of the assay plate using a Multidrop Combi (ThermoFisher). Compounds were pre-incubated with the enzyme for 20 min, followed by initiation of the methyltransferase reaction by addition of 12.5 μL of ^3H SAM in assay buffer (final volume=25 μL). The final concentrations of compounds ranged from a top default concentration of 80 μM down to 0.16 μM in ten 2-fold dilution steps. Reactions were carried out for 60 minutes and quenched with 20 μL per well of 1.96 mM SAH, 50 mM Tris pH 8.5, 200 mM EDTA. Stopped reactions were transferred to SAV coated Flashplates (Perkin Elmer), incubated for 120 min, washed with a plate washer, and then read on the TopCount NXT (1.0 min/well) to measure the amount of methyl histone product formed during the reaction.

Test [1] has as its system H3K27me3 mark in HeLa cells. The experiment in a line: H3K27me3 Alpha Hela Assay (AlphaLISA). It is filed as cell-based. Particulars: Homo sapiens, 72 hrs, read-out: EZH2_Cell_H3K27me3_Alpha_HeLa (EC50_K27me3). As for the experimental part:
Ten different doses of each test compound (in a series of 3-fold dilutions) were plated in duplicate 384-well tissue culture treated plates (Catalog #781080; Greiner Bio One; Monroe, N.C.). Hela cells grown in culture were trypsinized and counted using a Countess® cell counter (Catalog # C10281; Life Technologies, Grand Island, N.Y.). Cell were diluted to 67,000 cells per mL in 10% DMEM (Catalog #10569-010 Life Technologies, Grand Island, N.Y.) and 15 μL (1,000 cells) were plated into each well using the Biotek MicroFlo™ Select Dispenser (BioTek Instruments, Inc. Vermont, USA),) of the 384-well plate. Plates were incubated at 37° C./5% CO2 for 72 hrs. One of the duplicate plates was processed for HeLa assay and the other for viability.
To the plate processed for AlphaLISA was added 5 μL per well Cell-Histone Lysis buffer (1λ) (Catalog # AL009F1 Perkin Elmer; Waltham, Mass.) and the plate was incubated at RT for 30 minutes on a plate shaker with low speed (Model#4625-Q Thermo Scientific; Waltham, Mass.). Then, 10 μL per well Histone Extraction buffer (catalog # AL009F2; Perkin Elmer; Waltham, Mass.) was added and the plate further incubated at RT for 20 min on plate shaker with low speed. To each well was then added 10 μL per well of a 5× mix of anti-K27me3 acceptor beads plus Biotinylated anti-Histone H3 (C-ter) Antibody (diluted to 3 nM final) (Catalog #AL118 Perkin Elmer; Waltham, Mass.). Dilution of the acceptor beads and then anti-Histone H3 was with 1× Histone Detection buffer (Catalog # AL009F3 Perkin Elmer; Waltham, Mass.) which was produced diluted from the 10× stock provided. The plate was sealed with an aluminum plate sealer and incubated at 23° C. for 60 min. We then added 10 μL 5× solution of Streptavidin Donor beads (Catalog #6760002 Perkin Elmer; Waltham, Mass.) (20 μg/mL final in 1× Histone Detection Buffer), sealed the plate with Aluminum plate sealer and incubated at 23° C. for 30 min. The plates were then read using an EnVision-Alpha Reader (model #2104 Perkin Elmer; Waltham, Mass.).
Data from both assays was analyzed using Assay Assistant (Constellation Pharmaceuticals In-house product) and Activity Base (IDBS Ltd, Surrey, UK) template. Data files were imported to Assay Assistant and assay conditions were specified. A unique Analysis ID was created and the data files exported to Activity Base. An analysis template was created on Activity Base to measure dose-dependent inhibition of H3K27me3 mark and cell viability respectively. Readout of DMSO wells were used to normalize the data. Resulting curves were fitted using Activity base software Model 205 (IDBS Ltd, Surrey, UK). The data was checked for quality, validated and integrated in excel format using SARview (IDBS Ltd, Surrey, UK).
(In general: In Alpha technology, singlet oxygen from a donor bead excites a nearby acceptor bead.)

Chain of EZH2 (Q15910 whole entry): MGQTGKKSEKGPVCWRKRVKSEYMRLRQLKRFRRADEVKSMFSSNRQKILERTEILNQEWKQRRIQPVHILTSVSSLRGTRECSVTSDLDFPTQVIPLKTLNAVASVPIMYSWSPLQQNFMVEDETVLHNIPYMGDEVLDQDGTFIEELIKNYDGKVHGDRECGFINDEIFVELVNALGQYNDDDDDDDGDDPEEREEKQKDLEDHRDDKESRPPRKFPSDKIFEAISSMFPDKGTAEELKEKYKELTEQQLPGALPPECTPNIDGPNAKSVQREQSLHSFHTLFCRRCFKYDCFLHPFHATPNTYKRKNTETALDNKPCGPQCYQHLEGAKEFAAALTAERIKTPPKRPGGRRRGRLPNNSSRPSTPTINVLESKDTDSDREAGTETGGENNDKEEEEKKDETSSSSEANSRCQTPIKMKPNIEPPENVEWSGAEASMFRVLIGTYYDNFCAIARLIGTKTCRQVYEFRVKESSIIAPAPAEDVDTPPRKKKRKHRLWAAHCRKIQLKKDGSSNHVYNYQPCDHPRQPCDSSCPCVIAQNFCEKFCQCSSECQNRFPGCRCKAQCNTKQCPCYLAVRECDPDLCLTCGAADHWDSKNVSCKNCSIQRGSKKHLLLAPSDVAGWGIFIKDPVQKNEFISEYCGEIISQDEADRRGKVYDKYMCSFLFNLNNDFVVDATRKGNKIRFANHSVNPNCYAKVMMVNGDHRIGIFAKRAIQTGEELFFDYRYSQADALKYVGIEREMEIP
Chain of EZH2 (O75530 whole entry partner): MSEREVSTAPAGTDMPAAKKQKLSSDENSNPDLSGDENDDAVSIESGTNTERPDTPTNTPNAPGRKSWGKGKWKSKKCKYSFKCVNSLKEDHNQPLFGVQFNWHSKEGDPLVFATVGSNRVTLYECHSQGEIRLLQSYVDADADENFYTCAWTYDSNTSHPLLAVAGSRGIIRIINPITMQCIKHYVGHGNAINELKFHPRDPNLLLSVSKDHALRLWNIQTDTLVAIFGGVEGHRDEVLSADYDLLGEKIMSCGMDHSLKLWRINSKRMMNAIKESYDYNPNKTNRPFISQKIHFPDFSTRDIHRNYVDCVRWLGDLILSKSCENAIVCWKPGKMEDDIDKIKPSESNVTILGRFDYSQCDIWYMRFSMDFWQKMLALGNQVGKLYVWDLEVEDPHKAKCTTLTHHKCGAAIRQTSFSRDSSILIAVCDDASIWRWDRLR
Chain of EZH2 (Q15022 whole entry partner): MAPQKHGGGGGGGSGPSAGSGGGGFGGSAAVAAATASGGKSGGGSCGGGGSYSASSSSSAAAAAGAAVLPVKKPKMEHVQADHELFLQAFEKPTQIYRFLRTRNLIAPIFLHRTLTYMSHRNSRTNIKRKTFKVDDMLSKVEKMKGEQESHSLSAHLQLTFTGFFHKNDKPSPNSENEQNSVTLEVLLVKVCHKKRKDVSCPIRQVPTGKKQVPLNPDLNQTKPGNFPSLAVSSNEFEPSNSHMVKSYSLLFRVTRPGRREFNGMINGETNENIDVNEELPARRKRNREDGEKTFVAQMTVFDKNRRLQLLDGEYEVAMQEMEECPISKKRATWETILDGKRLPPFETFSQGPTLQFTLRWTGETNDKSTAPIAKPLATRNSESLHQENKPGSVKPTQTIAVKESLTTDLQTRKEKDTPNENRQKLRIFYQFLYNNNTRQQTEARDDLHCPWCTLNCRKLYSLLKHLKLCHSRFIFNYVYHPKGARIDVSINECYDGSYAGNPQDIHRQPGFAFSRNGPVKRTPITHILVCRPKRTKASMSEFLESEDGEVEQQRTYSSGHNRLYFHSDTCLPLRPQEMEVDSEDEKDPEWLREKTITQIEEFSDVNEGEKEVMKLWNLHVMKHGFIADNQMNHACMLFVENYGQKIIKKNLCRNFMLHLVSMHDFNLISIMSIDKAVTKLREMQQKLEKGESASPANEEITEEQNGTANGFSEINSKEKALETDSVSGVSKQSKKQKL

Regarding `COc1cc(C)[nH]c(=O)c1CNC(=O)c1c(C)n([C@H](C)C2CCN(Cc3cccc(F)c3)CC2)c2ccccc12` [Compound 263], the pIC50 (in general, the IC50 on a negative log10 scale, so that one unit is a factor of ten) at EZH2 was above 7.00. Moreover, the pEC50 in test [1] was above 6.40.

`COc1cc(C)[nH]c(=O)c1CNC(=O)c1c(C)n([C@H](C)C2CCN(Cc3ccncc3)CC2)c2ccccc12` [Compound 245] showed a pIC50 on EZH2 above 7.00. In test [1], the pEC50 is above 6.40.

For the compound `CCCC(=O)N1CCC([C@@H](C)n2c(C)c(C(=O)NCc3c(OC)cc(C)[nH]c3=O)c3ccccc32)CC1` [Compound 209], the pIC50 against EZH2 is above 7.00. In test [1], the pEC50 was 5.70 to 6.40.

As to `COc1cc(C)[nH]c(=O)c1CNC(=O)c1c(C)n([C@H](C)C2CCN(Cc3ncccn3)CC2)c2ccccc12` [Compound 241], the pIC50 against EZH2 is above 7.00. Further, the pEC50 in test [1] is 5.70 to 6.40.

`COc1cc(C)[nH]c(=O)c1CNC(=O)c1c(C)n([C@H](C)C2CCN(C3CC3)CC2)c2ccccc12` [Compound 254]: the pIC50 against EZH2 was above 7.00. Also, in test [1], the pEC50 was above 6.40.

In turn, `COc1cc(C)[nH]c(=O)c1CNC(=O)c1c(C)n([C@H](C)C2CCN(Cc3cnn(C)c3)CC2)c2ccccc12` [Compound 238] gave a pIC50 against EZH2 above 7.00. The pEC50 in test [1] was below 5.70.

On EZH2, `COc1cc(C)[nH]c(=O)c1CNC(=O)c1c(C)n([C@H](C)C2CCN(C(=O)CC(C)C)CC2)c2ccccc12` [Compound 213] had a pIC50 above 7.00. In test [1], the pEC50 is above 6.40.

`COc1cc(C)[nH]c(=O)c1CNC(=O)c1c(C)n([C@H](C)C2CCN(CC(C)(C)C#N)CC2)c2ccccc12` [Compound 185] gave a pIC50 at EZH2 above 7.00. Besides, in test [1], the pEC50 was 5.70 to 6.40.

As for `COc1cc(C)[nH]c(=O)c1CNC(=O)c1c(C)n([C@H](C)C2CCN(Cc3ccn(C)n3)CC2)c2ccccc12` [Compound 255], at EZH2, the pIC50 was above 7.00. In addition, in test [1], the pEC50 was below 5.70.

The compound `COc1cc(C)[nH]c(=O)c1CNC(=O)c1c(C)n([C@H](C)C2CCN(C(=O)C3CCOC3)CC2)c2ccccc12` (stereo partly drawn) [Compound 270] had a pIC50 against EZH2 above 7.00. For the same compound, in test [1], the pEC50 was below 5.70.

The compound `COc1cc(C)[nH]c(=O)c1CNC(=O)c1c(C)n([C@H](C)C2CCN(C(=O)CC#N)CC2)c2ccccc12` [Compound 186] had a pIC50 against EZH2 above 7.00. The pEC50 in test [1] was 5.70 to 6.40.

`COc1cc(C)[nH]c(=O)c1CNC(=O)c1c(C)n([C@H](C)C2CCN(C(=O)C(C)(C)OC)CC2)c2ccccc12` [Compound 236] showed a pIC50 on EZH2 above 7.00. In test [1], the pEC50 is above 6.40.

The compound `COc1cc(C)[nH]c(=O)c1CNC(=O)c1c(C)n([C@H](C)C2CCN(C(=O)C3(F)CCC3)CC2)c2ccccc12` [Compound 265] had a pIC50 at EZH2 above 7.00. Besides, the pEC50 in test [1] is above 6.40.

Consider `COc1cc(C)[nH]c(=O)c1CNC(=O)c1c(C)n([C@H](C)C2CCN(C(=O)C3(C)COC3)CC2)c2ccccc12` [Compound 189], for which the pIC50 against EZH2 is above 7.00. In addition, the pEC50 in test [1] was 5.70 to 6.40.

On EZH2, `COc1cc(C)[nH]c(=O)c1CNC(=O)c1c(C)n([C@H](C)C2CCN(C(C)C(F)F)CC2)c2ccccc12` (stereo partly drawn) [Compound 177] gave a pIC50 above 7.00. Further, the pEC50 in test [1] was above 6.40.

As for `COc1cc(C)[nH]c(=O)c1CNC(=O)c1c(C)n([C@H](C)C2CCN(Cc3ccncn3)CC2)c2ccccc12` [Compound 259], the pIC50 against EZH2 was above 7.00. Moreover, the pEC50 in test [1] was above 6.40.

The compound `CCC(C)C(=O)N1CCC([C@@H](C)n2c(C)c(C(=O)NCc3c(OC)cc(C)[nH]c3=O)c3ccccc32)CC1` (stereo partly drawn) [Compound 210] showed a pIC50 against EZH2 above 7.00. In test [1], the pEC50 was 5.70 to 6.40.

With `COc1cc(C)[nH]c(=O)c1CNC(=O)c1c(C)n([C@H](C)C2CCN(CC3COC3)CC2)c2ccccc12` [Compound 180], on EZH2, the pIC50 was above 7.00. Moreover, the pEC50 in test [1] was below 5.70.

In turn, `CCC(F)(F)CN1CCC([C@@H](C)n2c(C)c(C(=O)NCc3c(OC)cc(C)[nH]c3=O)c3ccccc32)CC1` [Compound 108] showed a pIC50 against EZH2 above 7.00. Also, in test [1], the pEC50 is above 6.40.

As for `COc1cc(C)[nH]c(=O)c1CNC(=O)c1c(C)n([C@H](C)C2CCN(CC3(C)COC3)CC2)c2ccccc12` [Compound 220], at EZH2, the pIC50 is above 7.00. Moreover, the pEC50 in test [1] was above 6.40.

In turn, `COc1cc(C)[nH]c(=O)c1CNC(=O)c1c(C)n([C@H](C)C2CCN([S+]([O-])C(C)(C)C)CC2)c2ccccc12` (stereo partly drawn) [Compound 256] had a pIC50 at EZH2 above 7.00. Moreover, the pEC50 in test [1] is above 6.40.

In turn, `COc1cc(C)[nH]c(=O)c1CNC(=O)c1c(C)n([C@H](C)C2CCN(C(=O)Cn3ccnc3C)CC2)c2ccccc12` [Compound 237] gave a pIC50 on EZH2 above 7.00. Also, the pEC50 in test [1] is below 5.70.

On EZH2, `COc1cc(C)[nH]c(=O)c1CNC(=O)c1c(C)n([C@H](C)C2CCN(C(=O)C3CCOCC3)CC2)c2ccccc12` [Compound 269] showed a pIC50 above 7.00. In addition, the pEC50 in test [1] is 5.70 to 6.40.

Consider `COc1cc(C)[nH]c(=O)c1CNC(=O)c1c(C)n([C@H](C)C2CCN(CCS(C)(=O)=O)CC2)c2ccccc12` [Compound 207], for which the negative logarithm of the IC50 (pIC50) at EZH2 is above 7.00. The pEC50 in test [1] was below 5.70.

Regarding `COc1cc(C)[nH]c(=O)c1CNC(=O)c1c(C)n([C@H](C)C2CCN(C(=O)Cc3cc(C)no3)CC2)c2ccccc12` [Compound 247], the pIC50 against EZH2 was above 7.00. Besides, in test [1], the pEC50 was 5.70 to 6.40.

For the compound `COc1cc(C)[nH]c(=O)c1CNC(=O)c1c(C)n([C@H](C)C2CCN(Cc3ccnc(C)c3)CC2)c2ccccc12` [Compound 246], the pIC50 at EZH2 was above 7.00. The pEC50 in test [1] is above 6.40.

`COc1cc(C)[nH]c(=O)c1CNC(=O)c1c(C)n([C@H](C)C2CCN(Cc3ccnc(C(F)(F)F)c3)CC2)c2ccccc12` [Compound 251] had a pIC50 on EZH2 above 7.00. Moreover, the pEC50 in test [1] is above 6.40.

On EZH2, `COc1cc(C)[nH]c(=O)c1CNC(=O)c1c(C)n([C@H](C)C2CCN(CC3(F)COC3)CC2)c2ccccc12` [Compound 222] gave a negative-log IC50 (pIC50) above 7.00. Further, the pEC50 in test [1] was above 6.40.

The compound `COc1cc(C)[nH]c(=O)c1CNC(=O)c1c(C)n([C@H](C)C2CCN(Cc3cncnc3)CC2)c2ccccc12` [Compound 240] showed a pIC50 against EZH2 above 7.00. Also, the pEC50 in test [1] was 5.70 to 6.40.

Compound `CC[C@H](C1CCN(CC(F)F)CC1)n1c(C)c(C(=O)NCc2c(OC)cc(C)[nH]c2=O)c2ccccc21` [Compound 219] gave a pIC50 on EZH2 above 7.00. For the same compound, the pEC50 in test [1] is above 6.40.

`COc1cc(C)[nH]c(=O)c1CNC(=O)c1c(C)n([C@H](C)C2CCN(Cc3ccncc3F)CC2)c2ccccc12` [Compound 260] showed a pIC50 against EZH2 above 7.00. Further, the pEC50 in test [1] is above 6.40.

`COCC(F)(F)C(=O)N1CCC([C@@H](C)n2c(C)c(C(=O)NCc3c(OC)cc(C)[nH]c3=O)c3ccccc32)CC1` [Compound 230] showed a pIC50 at EZH2 above 7.00. The pEC50 in test [1] is above 6.40.

Compound `COc1cc(C)[nH]c(=O)c1CNC(=O)c1c(C)n([C@H](C)C2CCN(Cc3cccnc3)CC2)c2ccccc12` [Compound 244] showed a pIC50 at EZH2 above 7.00. Further, the pEC50 in test [1] was 5.70 to 6.40.
